Measurements from PubChem BioAssay AID330 (DTP/NCI, 2004).
Where “and” joins values, the source holds several entries; their conditions need not be identical. Identical values can stand only once. Toxic doses and inconclusive results are not listed. Rule for the calls: active = survival T/C of 150% or more; inactive = T/C below 125% in these data.

System: P388 leukemia ip, CD2F1 mice, survival T/C
Assay: NCI In Vivo Anticancer Drug Screen. Data for tumor model P388 Leukemia (intraperitoneal) in CD2F1 (CDF1) mice
Details: endpoint: median survival time, higher = longer survival
How it was run: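 Mice carrying the transplanted tumor received test compound or vehicle. Survival was recorded in each group, and the value is the treated-group measurement divided by that of the vehicle-treated control group.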

[1] = dose: 60.0 mg/kg/injection, schedule: Q01DX005 (ip), vehicle: Klucel (hydroxypropylcellulose) (HPC)
[2] = dose: 240.0 mg/kg/injection, schedule: Q01DX005 (ip), vehicle: Klucel (hydroxypropylcellulose) (HPC)
[3] = dose: 100.0 mg/kg/injection, schedule: Q04DX003 (ip), vehicle: saline
[4] = dose: 50.0 mg/kg/injection, schedule: Q01DX005 (ip), vehicle: saline
[5] = dose: 100.0 mg/kg/injection, schedule: Q01DX005 (ip), vehicle: saline
[6] = dose: 200.0 mg/kg/injection, schedule: Q01DX005 (ip), vehicle: saline
[7] = dose: 60.0 mg/kg/injection, schedule: Q01DX005 (ip), vehicle: saline with Tween-80
[8] = dose: 120.0 mg/kg/injection, schedule: Q01DX005 (ip), vehicle: saline with Tween-80
[9] = dose: 240.0 mg/kg/injection, schedule: Q01DX005 (ip), vehicle: saline with Tween-80
[10] = dose: 12.5 mg/kg/injection, schedule: Q01DX009 (ip), vehicle: saline with Tween-80
[11] = dose: 25.0 mg/kg/injection, schedule: Q01DX009 (ip), vehicle: saline with Tween-80
[12] = dose: 50.0 mg/kg/injection, schedule: Q01DX009 (ip), vehicle: saline with Tween-80
[13] = dose: 6.25 mg/kg/injection, schedule: Q01DX009 (ip), vehicle: saline with Tween-80
[14] = dose: 50.0 mg/kg/injection, schedule: Q01DX005 (ip), vehicle: saline with Tween-80
[15] = dose: 100.0 mg/kg/injection, schedule: Q01DX005 (ip), vehicle: saline with Tween-80
[16] = dose: 200.0 mg/kg/injection, schedule: Q01DX005 (ip), vehicle: saline with Tween-80

Measured: T/C

COc1cc2c(c3oc4c(O)cccc4c(=O)c13)CC(C(C)(O)CO)O2 (centres undefined)
inactive: dose: 3.5 mg/kg/injection, schedule: Q01DX005 (ip), vehicle: Klucel (hydroxypropylcellulose) (HPC) 105 % of control | dose: 7.0 mg/kg/injection, schedule: Q01DX005 (ip), vehicle: Klucel (hydroxypropylcellulose) (HPC) 96 % of control | dose: 14.0 mg/kg/injection, schedule: Q01DX005 (ip), vehicle: Klucel (hydroxypropylcellulose) (HPC) 96 % of control | dose: 28.0 mg/kg/injection, schedule: Q01DX005 (ip), vehicle: Klucel (hydroxypropylcellulose) (HPC) 92 % of control

CC(C)(C)SS(=O)(=O)C(C)(C)C
inactive: [1] 103 % of control | dose: 120.0 mg/kg/injection, schedule: Q01DX005 (ip), vehicle: Klucel (hydroxypropylcellulose) (HPC) 106 % of control | [2] 105 % of control

CNC(=O)NC(c1cc(OC)c(OC)c(OC)c1)c1cc2c(cc1O)OCO2 (centres undefined)
inactive: dose: 30.0 mg/kg/injection, schedule: Q01DX005 (ip), vehicle: Klucel (hydroxypropylcellulose) (HPC) 89 % of control | [1] 87 % of control and 92 % of control | [2] 87 % of control

O=C1NC(c2ccccc2)(c2ccccc2)C(=O)N1CCBr
inactive: dose: 12.5 mg/kg/injection, schedule: Q04DX003 (ip), vehicle: saline 106 % of control | dose: 25.0 mg/kg/injection, schedule: Q04DX003 (ip), vehicle: Klucel (hydroxypropylcellulose) (HPC) 96 % of control | dose: 25.0 mg/kg/injection, schedule: Q04DX003 (ip), vehicle: saline 100 % of control | dose: 50.0 mg/kg/injection, schedule: Q04DX003 (ip), vehicle: Klucel (hydroxypropylcellulose) (HPC) 105 % of control | dose: 50.0 mg/kg/injection, schedule: Q04DX003 (ip), vehicle: saline 105 % of control | dose: 100.0 mg/kg/injection, schedule: Q04DX003 (ip), vehicle: Klucel (hydroxypropylcellulose) (HPC) 100 % of control and 107 % of control | [3] 104 % of control | dose: 200.0 mg/kg/injection, schedule: Q04DX003 (ip), vehicle: Klucel (hydroxypropylcellulose) (HPC) 100 % of control and 96 % of control | dose: 400.0 mg/kg/injection, schedule: Q04DX003 (ip), vehicle: Klucel (hydroxypropylcellulose) (HPC) 98 % of control and 99 % of control

CS(=O)CCC(N)P(=O)(O)O (centres undefined)
inactive: [4] 92 % of control | [5] 99 % of control | [6] 99 % of control

CCOC(=O)C1=C(C(=O)c2ccc(OC)cc2)C(c2ccc(Cl)cc2Cl)C(C(=O)c2ccc(OC)cc2)=C(C(=O)OCC)N1
inactive: dose: 30.0 mg/kg/injection, schedule: Q01DX005 (ip), vehicle: saline with Tween-80 96 % of control | [7] 91 % of control and 94 % of control | [8] 101 % of control | [9] 92 % of control

COc1ccc(CSC(=S)Nc2ccc(Br)c(C)c2)cc1
inactive: dose: 50.0 mg/kg/injection, schedule: Q01DX009 (ip), vehicle: suspension in saline 96 % of control | dose: 100.0 mg/kg/injection, schedule: Q01DX009 (ip), vehicle: suspension in saline 101 % of control | dose: 200.0 mg/kg/injection, schedule: Q01DX009 (ip), vehicle: suspension in saline 109 % of control

O=C(NC(CCS(=O)(=O)NCc1ccc(S(=O)(=O)F)cc1)C(=O)OCc1ccccc1)OCc1ccccc1 (centres undefined)
inactive: dose: 12.5 mg/kg/injection, schedule: Q01DX009 (ip), vehicle: other 90 % of control | dose: 25.0 mg/kg/injection, schedule: Q01DX009 (ip), vehicle: other 89 % of control | dose: 100.0 mg/kg/injection, schedule: Q01DX009 (ip), vehicle: other 102 % of control | dose: 200.0 mg/kg/injection, schedule: Q01DX009 (ip), vehicle: other 98 % of control

N=C(N)c1ccc(O)cc1
inactive: [4] 102 % of control | [5] 111 % of control | [6] 112 % of control

COc1ccc(CC(N)c2ccc(OC)c(OC)c2)cc1O (centres undefined)
inactive: [7] 114 % of control | [8] 100 % of control | [9] 97 % of control

CCCCOCN(COCCCC)c1ccc(C)cc1
inactive: [10] 88 % of control | [11] 104 % of control | [12] 112 % of control

CCCCCCCCCCCCCCCCSc1ccncc1NN=O
inactive: dose: 3.12 mg/kg/injection, schedule: Q01DX009 (ip), vehicle: saline with Tween-80 99 % of control | [13] 106 % of control | [10] 101 % of control | [11] 105 % of control | [12] 99 % of control and 100 % of control | dose: 100.0 mg/kg/injection, schedule: Q01DX009 (ip), vehicle: saline with Tween-80 113 % of control

CC1(C)OC2C3CC(C2O1)C1C3C2(Cl)CC1(Cl)C(Cl)=C2Cl (centres undefined)
inactive: [14] 106 % of control | [15] 99 % of control | [16] 101 % of control

COc1cc2c(cc1C)C1=C(C)C(=O)OC1[C@@H](O)[C@@H]2C (some centres undefined)
inactive: dose: 2.25 mg/kg/injection, schedule: Q01DX005 (ip), vehicle: Klucel (hydroxypropylcellulose) (HPC) 104 % of control | dose: 4.5 mg/kg/injection, schedule: Q01DX005 (ip), vehicle: Klucel (hydroxypropylcellulose) (HPC) 101 % of control | dose: 9.0 mg/kg/injection, schedule: Q01DX005 (ip), vehicle: Klucel (hydroxypropylcellulose) (HPC) 101 % of control | dose: 18.0 mg/kg/injection, schedule: Q01DX005 (ip), vehicle: Klucel (hydroxypropylcellulose) (HPC) 94 % of control

CC(C)c1cccc(C(C)C)c1NC(=O)OCCN(C)C
inactive: [7] 100 % of control | [8] 115 % of control

CCOC(=O)C1(C)CCCC1N (centres undefined)
inactive: dose: 60.0 mg/kg/injection, schedule: Q01DX005 (ip), vehicle: saline 92 % of control | dose: 120.0 mg/kg/injection, schedule: Q01DX005 (ip), vehicle: saline 90 % of control

CC(=O)OCC1OC([Se][As](C)C)C(OC(C)=O)C(OC(C)=O)C1OC(C)=O (centres undefined)
inactive: dose: 1.56 mg/kg/injection, schedule: Q01DX009 (ip), vehicle: saline with Tween-80 95 % of control | dose: 3.13 mg/kg/injection, schedule: Q01DX009 (ip), vehicle: saline with Tween-80 95 % of control | [13] 99 % of control | dose: 11.0 mg/kg/injection, schedule: Q01DX009 (ip), vehicle: saline with Tween-80 104 % of control | [10] 99 % of control | dose: 16.6 mg/kg/injection, schedule: Q01DX009 (ip), vehicle: saline with Tween-80 110 % of control | dose: 37.5 mg/kg/injection, schedule: Q01DX009 (ip), vehicle: saline with Tween-80 119 % of control

N=C(N)SCCSC(=N)N
inactive: dose: 25.0 mg/kg/injection, schedule: Q01DX009 (ip), vehicle: saline sonified 90 % of control | dose: 50.0 mg/kg/injection, schedule: Q01DX009 (ip), vehicle: saline sonified 109 % of control | dose: 100.0 mg/kg/injection, schedule: Q04DX002 (ip), vehicle: saline 100 % of control | dose: 200.0 mg/kg/injection, schedule: Q04DX002 (ip), vehicle: saline 100 % of control

CCCCN(CCCC)CCCNc1nccc2ccccc12
inactive: dose: 6.25 mg/kg/injection, schedule: Q01DX005 (ip), vehicle: saline with Tween-80 106 % of control | dose: 12.5 mg/kg/injection, schedule: Q01DX005 (ip), vehicle: saline with Tween-80 103 % of control | dose: 25.0 mg/kg/injection, schedule: Q01DX005 (ip), vehicle: saline with Tween-80 106 % of control

O=P1(c2ccccc2)CCCCN1 (centres undefined)
inactive: [3] 104 % of control | dose: 200.0 mg/kg/injection, schedule: Q04DX003 (ip), vehicle: saline 110 % of control | dose: 400.0 mg/kg/injection, schedule: Q04DX003 (ip), vehicle: saline 110 % of control

CCN(CC)c1ccc(/C=N/Nc2cc(C)nc3ccc(C4CCCCC4)cc23)cc1
inactive: [14] 90 % of control | [15] 100 % of control | [16] 118 % of control

O=Cc1cccc(O)c1O
inactive: dose: 100.0 mg/kg/injection, schedule: Q01DX009 (ip), vehicle: saline 103 % of control and 110 % of control | dose: 200.0 mg/kg/injection, schedule: Q01DX009 (ip), vehicle: saline 115 % of control

Cc1ccc(C(O)c2cnc(C)n2Cc2ccccc2)cc1 (centres undefined)
inactive: [7] 100 % of control | [8] 98 % of control | [9] 92 % of control
